For the experiment, the system named is Hs578T complex spheroid growth, percent test/control. As to the kind of experiment: Anticancer human tumor Hs578T cell line growth inhibition [AhR].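 As to all read-outs here: luminescent viability signal as a proxy for spheroid growth; spheroids exposed to agents for one week after three days of growth.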 The following applies: for viability, T/C: stronger effect = lower value; for IC50: curve of compound. The text has this: Multicellular complex tumor spheroid response to aryl hydrocarbon receptor antagonists in combination with a variety of drugs and investigational agents in selected tumor cell lines
The current study was undertaken to assess response to aryl hydrocarbon receptor antagonists in combination with standard-of-care drugs and investigational agents in solid tumor complex spheroid models. Complex spheroids include a stromal component modeled by human endothelial cells (HUVEC) and fibroblasts modeled by human mesenchymal stem cells (MSCs). The concentration ranges selected for each drug and investigational agent were based upon clinically achievable concentrations if the clinical Cmax of the agent was known.
Compounds. The drugs and investigational agents: BAY 2416964 (NSC825713), GNF351 (NSC835774), CH-223191 (NSC835775), CPI-455 (NSC825282), aza-TdCyd (NSC777586), decitabine (NSC127716), belinostat (NSC758774), entinostat (NSC756642), pevonedistat (NSC761192), tazemetostat (NSC777109), talazoparib (NSC765396), olaparib (NSC753686), selinexor (NSC780203), nedisertib (M3814, NSC802822), bortezomib (NSC756655), venetoclax (NSC766270), doxorubicin (NSC123127), elimusertib (BAY189344, NSC800525), ceralasertib (AZD6738, NSC777638), TAK-243 (NSC785004), alisertib (NSC759677), etoposide (NSC141540), topotecan (NSC609699), eribulin (NSC707389), gemcitabine (NSC613327), carboplatin (NSC241240), cisplatin (NSC119875), and SN-38 (NSC673596) were obtained from the National Cancer Institute (NCI) Developmental Therapeutics Program Chemical Repository (32). The FDA-approved anticancer drug set is available from the Developmental Therapeutics Program at https://dtp.cancer.gov/organization/dscb/obtaining/available plates.htm. […] The stock solutions were prepared in dimethyl sulfoxide (DMSO, Sigma-Aldrich, St. Louis, MO, cat. D2650), except for the platinum compounds which were prepared in saline (Quality Biological, Gaithersburg, MD, cat. 114-055-101), at 800-fold the tested concentration and stored at -70 degrees C prior to their use. All drugs and investigational agents were tested over a range starting from a high concentration at or near the clinical Cmax and decreasing in half-log increments. If the clinical Cmax for an agent had not been determined, the highest concentration tested was 10 microM (Table 1).
Cell Culture. All cells were maintained in an incubator at 37 degrees C and 5% CO2 with 95% humidity. The PDC lines were cultured according to standard operating procedures established by the NCI PDMR (https://pdmr.cancer.gov). Briefly, all PDCs were thawed and cultured in Matrigel-coated flasks prepared with a working solution of 1X Ham's F-12 nutrient mix, without supplementation (Invitrogen, Waltham, MA, cat. 11765054), 100 U/mL penicillin-streptomycin (Invitrogen, cat. 15140122), and 2.5% Matrigel (Corning Inc., Corning, NY, cat. 354248) for the first three passages. All PDCs were cultured in complete DMEM/F-12 media containing advanced DMEM/F-12 (Invitrogen, cat. 12634028), 4.9% defined fetal bovine serum, heat inactivated (HyClone Laboratories Inc., Logan, UT, cat. SH30070.03HI), 389 ng/mL hydrocortisone (Sigma-Aldrich, cat. H4001), 9.7 ng/mL human EGF recombinant protein (Invitrogen, cat. PHG0313), 23.4 microg/mL adenine (Sigma-Aldrich, cat. A2786), 97.3 U/mL penicillin-streptomycin (Invitrogen, cat. 15140122), 1.9 mM L-glutamine (Invitrogen, cat. 25030081), and 9.7 microM Y-27632 dihydrochloride (Tocris Bioscience, Bristol, United Kingdom, cat. 1254). The PDCs were cultured in complete DMEM/F12 media without 10 microM Y-27632 dihydrochloride for at least two passages prior to the screen. The established cell lines NCI-H1341 and […] were cultured in DMEM/F-12, HEPES (Invitrogen, cat. 11330032), 5% defined fetal bovine serum (HyClone Laboratories Inc., cat. SH30070.03), ITS premix universal culture supplement [insulin (5 microg/mL), transferrin (5 microg/mL), and selenious acid (5 ng/mL)] […]

Several values for one entry are separate records, joined by “and”; a condition that tells them apart may be missing. Identical values can stand only once. A value given as a limit tells only on which side of the number the result lay.

As to `CC(C)CC(NC(=O)C(Cc1ccccc1)NC(=O)c1cnccn1)B(O)O` (stereo not drawn), the IC50 (usually the point on the concentration scale where inhibition reaches its midpoint) is 0.00656 µM and 0.00549 µM and 0.0045 µM. For the same molecule, the viability, T/C (as a rule, the result in the treated group divided by that in the control group, in per cent) (compound 0.000949 µM) was 105% and 102% and 101%. Moreover, the viability, T/C (compound 0.003 µM) is 94% and 86.9% and 73.4%. In addition, the viability, T/C (compound 0.00949 µM) was 29.3% and 16.7% and 7.03%. Moreover, the viability, T/C (compound 0.03 µM) was 0.41% and 0.42% and 0.68%. In addition, the viability, T/C (compound 0.0949 µM) is 0.27% and 0.44% and 1.61%. For the same molecule, where the note is “compound 0.3 µM”, the viability, T/C is 0.58% and 0.42% and 0.53%.

As to `CC1(C)CCC(CN2CCN(c3ccc(C(=O)NS(=O)(=O)c4ccc(NCC5CCOCC5)c([N+](=O)[O-])c4)c(Oc4cnc5[nH]ccc5c4)c3)CC2)=C(c2ccc(Cl)cc2)C1`, the IC50 is above 10 µM. Besides, the viability, T/C (compound 0.0316 µM) was 103% and 111% and 99.9%. Also, for the setting “compound 0.1 µM”, the viability, T/C is 110% and 109% and 97.8%. Further, the viability, T/C (compound 0.316 µM) is 112% and 104% and 99.2%. For the same molecule, the viability, T/C (compound 1 µM) is 91% and 103% and 92.9%. In addition, the viability, T/C (compound 3.16 µM) was 101% and 97.7% and 82.6%. Moreover, the viability, T/C (compound 10 µM) is 84% and 62.3% and 78.2%.

In the case of `CC1COCCN1c1cc(-c2ccnn2C)c2ccnc(-c3ccn[nH]3)c2n1` (stereo not drawn), the IC50 was 0.658 µM and 0.326 µM and 0.298 µM. Besides, the viability, T/C (compound 0.00316 µM) is 109% and 104% and 102%. For the same molecule, the viability, T/C (compound 0.01 µM) is 105% and 104% and 114%. Also, the viability, T/C (compound 0.0316 µM) was 97.8% and 102% and 95.5%. Besides, under “compound 0.1 µM”, the viability, T/C is 78.7% and 81.3% and 77.2%. The viability, T/C (compound 0.316 µM) was 60.4% and 51% and 48.1%. Further, the viability, T/C (compound 1 µM) was 44.3% and 36.2% and 37.9%.

On to `CCN(c1cc(-c2ccc(CN3CCOCC3)cc2)cc(C(=O)NCc2c(C)cc(C)[nH]c2=O)c1C)C1CCOCC1`, for which the IC50 is above 3 µM. Besides, under “compound 0.00949 µM”, the viability, T/C was 103% and 101% and 104%. Besides, the viability, T/C (compound 0.03 µM) was 105% and 99% and 108%. Moreover, for the setting “compound 0.0949 µM”, the viability, T/C was 109% and 101% and 95.7%. Also, for the setting “compound 0.3 µM”, the viability, T/C was 91.3% and 103% and 98.4%. Further, the viability, T/C (compound 0.949 µM) was 100% and 97.4% and 94.9%. Moreover, the viability, T/C (compound 3 µM) is 95.2% and 97.7% and 99.6%.

For `CC[C@@]1(O)C(=O)OCc2c1cc1n(c2=O)Cc2cc3c(CN(C)C)c(O)ccc3nc2-1`, the IC50 is above 0.1 µM. Also, the viability, T/C (compound 0.000316 µM) was 94.7% and 97.6% and 107%. In addition, the viability, T/C (compound 0.001 µM) was 106% and 98.2% and 103%. Besides, under “compound 0.00316 µM”, the viability, T/C was 105% and 90.3% and 95.3%. The viability, T/C (compound 0.01 µM) is 96.5% and 72.5% and 96.3%. For the same molecule, the viability, T/C (compound 0.0316 µM) is 76.8% and 64.2% and 77.9%. Moreover, under “compound 0.1 µM”, the viability, T/C was 69.3% and 71.8% and 68.2%.

With `CCc1c2c(nc3ccc(O)cc13)-c1cc3c(c(=O)n1C2)COC(=O)[C@]3(O)CC`, the IC50 is 0.253 µM and 0.124 µM and 0.206 µM. Also, for the setting “compound 0.000949 µM”, the viability, T/C is 83.3% and 77.6% and 78.6%. The viability, T/C (compound 0.003 µM) is 70.5% and 82.2% and 73.2%. Also, the viability, T/C (compound 0.00949 µM) was 74% and 64.3% and 76.1%. Besides, the viability, T/C (compound 0.03 µM) is 64.6% and 63.2% and 75%. The viability, T/C (compound 0.0949 µM) was 62.3% and 56.5% and 61.9%. For the setting “compound 0.3 µM”, the viability, T/C was 47.1% and 38.3% and 43.4%.

Take `COc1cc(C2c3cc4c(cc3C(OC3OC5COC(C)OC5C(O)C3O)C3COC(=O)C23)OCO4)cc(OC)c1O` (stereo not drawn): the IC50 is above 10 µM. Moreover, the viability, T/C (compound 0.0316 µM) is 85.4% and 94.6% and 92.8%. Also, the viability, T/C (compound 0.1 µM) was 99.7% and 91.7% and 91.5%. Besides, the viability, T/C (compound 0.316 µM) was 84.1% and 88.8% and 79.9%. Moreover, the viability, T/C (compound 1 µM) is 66.8% and 82.6% and 69.9%. Further, the viability, T/C (compound 3.16 µM) was 69.5% and 79.7% and 71.9%. In addition, the viability, T/C (compound 10 µM) is 58.1% and 56.4% and 57.1%.

`COc1cc(Nc2ncc3c(n2)-c2ccc(Cl)cc2C(c2c(F)cccc2OC)=NC3)ccc1C(=O)O`: the IC50 was 9.28 µM and 6.15 µM and 8.47 µM. For the same molecule, under “compound 0.0316 µM”, the viability, T/C was 78.2% and 84.4% and 89.2%. For the setting “compound 0.1 µM”, the viability, T/C was 92.6% and 82.2% and 94%. Moreover, for the setting “compound 0.316 µM”, the viability, T/C was 97% and 80.2% and 85.2%. The viability, T/C (compound 1 µM) is 96.8% and 87% and 87.8%. The viability, T/C (compound 3.16 µM) is 89.2% and 70.9% and 81%. Besides, where the note is “compound 10 µM”, the viability, T/C was 47.3% and 34.7% and 44.9%.

In the case of `COc1cccc2c1C(=O)c1c(O)c3c(c(O)c1C2=O)CC(O)(C(=O)CO)CC3OC1CC(N)C(O)C(C)O1` (stereo not drawn), the IC50 was 0.448 µM and 0.364 µM and 0.406 µM. In addition, the viability, T/C (compound 0.0316 µM) was 94.7% and 85.6% and 84.9%. In addition, under “compound 0.1 µM”, the viability, T/C is 76.8% and 79.4% and 75.8%. Besides, the viability, T/C (compound 0.316 µM) is 64.8% and 54.3% and 58.2%. For the setting “compound 1 µM”, the viability, T/C is 22.9% and 18.6% and 23.3%. Further, the viability, T/C (compound 3.16 µM) was 3.73% and 2.18% and 2.52%. For the setting “compound 10 µM”, the viability, T/C is 3.36% and 2.24% and 3.77%.
